For one test, the target named is T1, human STAT6/pIL-4Rα (Homo sapiens, UniProt P42226).
T1 construct: histidine tag
T1 sequence (P42226 123-658): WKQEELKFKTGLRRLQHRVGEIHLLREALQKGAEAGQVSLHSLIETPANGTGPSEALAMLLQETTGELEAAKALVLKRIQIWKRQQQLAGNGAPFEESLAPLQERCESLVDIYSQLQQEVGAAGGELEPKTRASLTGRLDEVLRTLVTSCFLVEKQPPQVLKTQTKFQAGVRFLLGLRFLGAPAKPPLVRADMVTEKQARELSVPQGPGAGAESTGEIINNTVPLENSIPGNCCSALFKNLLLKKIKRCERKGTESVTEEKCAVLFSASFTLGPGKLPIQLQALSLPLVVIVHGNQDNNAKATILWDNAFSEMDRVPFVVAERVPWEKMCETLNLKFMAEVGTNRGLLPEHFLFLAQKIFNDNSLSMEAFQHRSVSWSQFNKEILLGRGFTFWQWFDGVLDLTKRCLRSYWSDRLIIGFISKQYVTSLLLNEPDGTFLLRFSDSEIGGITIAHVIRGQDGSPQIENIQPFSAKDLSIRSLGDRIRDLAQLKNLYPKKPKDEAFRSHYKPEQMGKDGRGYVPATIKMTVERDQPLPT
The test is described as follows: Binding inhibitory activity between human STAT6/pIL-4Rα by fluorescence polarization method. The note with it: rhSTAT6 (123-658) / FAM-pIL-4Rα peptide. The method, then:
Test Example 1: Measurement of Binding Inhibitory Activity Between Human STAT6/pIL-p 4Rα by Fluorescence Polarization Method
1) Construction of Histidine Tag-Fused Recombinant Human STAT6 (123 to 658 Region)
A histidine tag-fused recombinant human STAT6 (hereinafter referred to as rhSTAT6) expression vector [plasmid DNA in which a nucleic acid sequence containing human STAT6 (123-658 region) was inserted into a pET28a(+) vector (Novagen)] was inserted into E. coli, and the cells were cultured overnight under culturing conditions at 17° C. with IPTG treatment. After disrupting E. coli with a high-pressure homogenizer (EmulsiFlex-C3, manufactured by AVESTIN, Inc.), affinity purification using Ni-NTA agarose (manufactured by Qiagen), cation exchange chromatography using HiTrap® CM-FF (manufactured by GE healthcare), and gel filtration chromatography using Superdex® 200 10/300GL (manufactured by GE healthcare) were performed to obtain rhSTAT6.
2) Measurement of Binding Inhibitory Activity Between Human STAT6/pIL-4Rα by Fluorescence Polarization Method
A DMSO solution of the example compound was diluted with an assay buffer [for example, a buffer containing 50 mmol/L NaCl, 10 mmol/L HEPES (pH 7.0), 1 mmol/L DTT, 1 mmol/L EDTA, and 0.01 vol % NP-40, and the like] to prepare a compound-added solution. The DMSO concentration in the compound addition solution was adjusted to 1 or 2 vol %. 10 μL of the compound addition solution and an assay buffer containing 1 or 2 vol % DMSO were added to each well of a 384-well plate. 5 μL of an assay buffer solution containing rhSTAT6 (rhSTAT6 concentration: for example, 1 μmol/L) or an assay buffer was added to each well of a 384-well plate. After leaving the plate at room temperature for 30 minutes in the dark, 5 μL of an assay buffer solution (FAM-pIL-4Rp concentration: for example, 80 nmol/L) containing FAM-labeled phosphorylated IL-4Rα peptide (sequence: FAM-Ala-pTyr-Lys-Pro-Phe-Gln-Asp-Leu-IIe-NH2) (hereinafter, FAM-pIL-4Rp) or an assay buffer containing 2 vol % DMSO was added to each well of the 384-well plate. The mixture was left to stand at room temperature for 30 minutes in the dark, and then centrifuged (200 g, 1 minute, room temperature). Fluorescence polarization values were measured using Infinite (registered trademark) F500 (manufactured by Tecan Japan Co., Ltd.) (Excitation: 485 nm, Emission: 535 nm). The inhibition rate of each Example compound was calculated according to the following formula using the fluorescence polarization value (A) when rhSTAT6 and FAM-pIL-4Rp were added without adding the Example compound, the fluorescence polarization value (B) when FAM-pIL-4Rp was added without adding the Example compound and rhSTAT6, and the fluorescence polarization value (C) when each Example compound, rhSTAT6, and FAM-pIL-4Rp were added.
In the evaluation of each example compound, the 50% inhibitory concentration (IC50) of each example compound was calculated from a linear function equation of a straight line connecting two points sandwiching 50%.

In another test the test system is human STAT6. The test is described as follows: Human STAT6 dependent reporter activity (IL-4 stimulated STAT6 reporter assay using STAT6-HEK293 cells). In kind it is cell-based. The settings on record: Homo sapiens, IL-4 stimulation, luciferase activity, read-out: Inhibition rate (%); for inhibition at 0.1 µM: compound 0.1 μmol/L; for inhibition at 1 µM: compound 1 μmol/L. On the procedure:
Test Example 2: Measurement of Human STAT6 Dependent Reporter Activity
1) Construction of Human STAT6-HEK293 Cells
HEK 293 cells maintenance cultured by [Penicillin-Streptomycin (Thermo Fisher Scientific) and FBS, 1 vol % and 10 vol % respectively added to DMEM high glucose (Thermo Fisher Scientific)](manufactured by ATCC) were collected, and suspended in 10 mL of 0.5% BSA/PBS. 1×10^6 cells were collected, the supernatant was removed by centrifuging, and the cells were suspended in 100 μL of Nucleofector solution V (manufactured by Lonza K.K.). 2 μg of STAT6 vector [plasmid DNAs incorporating human STAT6 sequences in pcDNA3.1 (Invitrogen)] was added, and the STAT6 vector was introduced into the HEK293 cells using the program Q-001 initially registered in the Nucleofector®2b. A cell line (STAT6-HEK293 cells) consistently expressing STAT6 was acquired by selecting resistant cells in a medium containing Geneticin® (manufactured by Thermo Fisher Scientific). 2) STAT6 reporter assay using STAT6-HEK293 cells 3×10^6 STAT6-HEK293 cells maintained in assay medium [culture medium supplemented with 1 vol % Geneticin®] were harvested and seeded in a 10 cm dish. 3 μg of a STAT6 reporter vector [plasmid in which a sequence containing a STAT6 binding sequence and a C/EBP binding sequence in tandem was incorporated into pGL4.27 (manufactured by Promega Corporation)] and 9 μL of FuGENE® HD transfection reagent (manufactured by Promega Corporation) were added to 500 μL of Opti-MEM® (manufactured by Thermo Fisher Scientific) to prepare transfection solutions. The transfection solution was vortexed and left to stand for about 5 minutes, then added dropwise to the STAT6-HEK293 cells, which were then cultured overnight in a C02 incubator to produce STAT6 reporter cells.
The prepared STAT6 reporter cells were seeded on B&W isoplate-96 TC (PerkinElmer Japan Co., Ltd.) (3×10^4 cells/50 μL/well) and cultured overnight in a C02 incubator (37° C., 5% C02). 50 μL of assay medium was added to each well instead of the STAT6 reporter cells. The compound addition solution was prepared by diluting the DMSO solution of the example compound 250-fold using the assay medium. 20 μL of compound addition solution or 0.4 vol % DMSO-containing assay medium was added to the plate, and the plate was then cultured in a CO2 incubator for 1 hour. 10 μL of 80 ng/mL human IL-4 solution (Peprotech) or assay medium was added to each well, and the cells were cultured in a CO2 incubator for 6 hours.
STAT6 reporter activity was measured using the Bright-Glo® Luciferase Assay System (Promega). 100 μL of Bright-Glo® reagent was added to each well, and luciferase activity was measured using Infinite® F500. The inhibition rate of each Example compound was calculated by the following formula using the luciferase activity value (G) when no Example compound was added and stimulation with IL-4 was performed, the luciferase activity value (H) when no Example compound was added and stimulation with IL-4 was not performed, and the luciferase activity value (I) when each Example compound was treated and stimulation with IL-4 was performed.
Note that the viable cell rate under each condition was 70% or more, and it was determined that the luciferase activity inhibitory activity of each example compound was appropriately evaluated.

On to `CCn1c(-c2ccc(N3C(=O)C(C)CC3C)cc2)nc2cc(C(F)(F)F)cc(C(=O)Nc3cccc(C(N)=O)c3)c21` (racemic) [Ex. 11], for which the IC50 at human STAT6/pIL-4Rα is 440 nM. Besides, in the test with human STAT6, the inhibition at 0.1 µM is 43% and the inhibition at 1 µM was 92%.
In the same order, the values of `CCn1c(-c2ccc(N3C(=O)C(C)CC3C)cc2)nc2cc(C(F)(F)F)cc(C(=O)Nc3cccc(C(N)=O)c3)c21` (single isomer, unassigned) [Ex. 12] are 350 nM, 47% and 94%.
On the same counts, the results for `CCn1c(-c2ccc(N3C(=O)C(C)CC3C)cc2)nc2cc(C(F)(F)F)cc(C(=O)Nc3cccc(C(N)=O)c3F)c21` (single isomer, unassigned) [Ex. 219] are 280 nM, 32% and 96%.
The compound `CCn1c(-c2ccc(-n3c(C)nn(C)c3=O)cc2)cc2cc(C(F)(F)F)cc(C(=O)Nc3cc[nH]n3)c21` [Ex. 105] had an IC50 on human STAT6/pIL-4Rα of 780 nM.
On to `COCCn1c(-c2ccc(-n3c(C)nn(C)c3=O)cc2)cc2ccnc(C(=O)Nc3cccc(C(N)=O)c3)c21` [Ex. 106], for which the IC50 at human STAT6/pIL-4Rα worked out at 1970 nM.
For `CCn1c(-c2ccc(-n3c(C)nn(C)c3=O)cc2)cc2cc(C(F)(F)F)cc(C(=O)Nc3ccc(CNC(C)=O)cc3)c21` [Ex. 116], the IC50 on human STAT6/pIL-4Rα turned out to be 2070 nM.
With `COCCn1c(-c2ccc(-n3c(C)nn(C)c3=O)cc2)cc2cc(C(F)(F)F)cc(C(=O)Nc3cccc(C(=O)Nc4ccn(C)n4)c3)c21` [Ex. 117], the IC50 at human STAT6/pIL-4Rα came out at 320 nM.
The same measure, in the same setting: in the case of `CCn1c(-c2ccc(-n3c(C)nn(C)c3=O)nn2)cc2cc(C(F)(F)F)cc(C(=O)Nc3ccc(F)c(C(N)=O)c3)c21` [Ex. 128] it was 570 nM; in that of `CCn1c(-c2ccc(-n3cnn(C)c3=O)cc2)c(Cl)c2cc(C(F)(F)F)cc(C(=O)Nc3cccc(C(N)=O)c3)c21` [Ex. 141], 910 nM.
As for `COCCn1c(-c2ccc(-n3c(C)nn(C)c3=O)cc2)cc2cc(C(F)(F)F)cc(C(=O)Nc3cccc(C(=O)O)c3)c21` [Ex. 162], the IC50 on human STAT6/pIL-4Rα came out at 300 nM.
`CCn1c(-c2ccc(-n3c(C)nn(C)c3=O)cc2)cc2ccnc(C(=O)Nc3cccc(C(=O)O)c3)c21` [Ex. 164]: the IC50 at human STAT6/pIL-4Rα came out at 320 nM.
At human STAT6/pIL-4Rα, `COCCn1c(-c2ccc(-n3c(C)nn(C)c3=O)cc2)cc2cc(C(F)(F)F)cc(C(=O)Nc3cccc(C(=O)O)n3)c21` [Ex. 184] had an IC50 of 270 nM.
Same read-out and setting: to `C/C=C/c1cc(C(=O)Nc2cccc(C(N)=O)c2)c2c(c1)nc(-c1ccc(N(C)C(C)=O)cc1)n2CCOC` [Ex. 203] belongs 7060 nM.
On to `CCCc1cc(C(=O)Nc2cccc(C(N)=O)c2)c2c(c1)nc(-c1ccc(N(C)C(C)=O)cc1)n2CCOC` [Ex. 204], for which the half-inhibitory concentration (IC50) on human STAT6/pIL-4Rα amounted to 2350 nM.
Turning to `COCCn1c(-c2ccc(N(C)C(C)=O)cc2)nc2cc(CCC(C)(C)OC)cc(C(=O)Nc3cccc(C(N)=O)c3)c21` [Ex. 205], on human STAT6/pIL-4Rα, the IC50 was 8440 nM.
With `C#Cc1cc(C(=O)Nc2cccc(C(N)=O)c2)c2c(c1)nc(-c1ccc(N(C)C(C)=O)cc1)n2CCOC` [Ex. 206], on human STAT6/pIL-4Rα, the half-maximal inhibitory concentration (IC50) was found to be 3620 nM.
Consider `C=Cc1cc(C(=O)Nc2cccc(C(N)=O)c2)c2c(c1)nc(-c1ccc(N(C)C(C)=O)cc1)n2CCOC` [Ex. 207], for which the IC50 at human STAT6/pIL-4Rα turned out to be 2950 nM.
At human STAT6/pIL-4Rα, `COCCn1c(-c2ccc(N(C)C(C)=O)cc2)nc2cc(C3CC3)cc(C(=O)Nc3cccc(C(N)=O)c3)c21` [Ex. 208] displayed an IC50 of 2080 nM.
`COCCn1c(-c2ccc(N(C)C(C)=O)cc2)nc2cc(-c3ccccc3)cc(C(=O)Nc3cccc(C(N)=O)c3)c21` [Ex. 209] displayed an IC50 on human STAT6/pIL-4Rα of 6600 nM.
The same measure, in the same setting: to `COCCn1c(-c2ccc(N(C)C(C)=O)cc2)nc2cc(C(C)C)cc(C(=O)Nc3cccc(C(N)=O)c3)c21` [Ex. 210] belongs 2740 nM.
The same measure, in the same setting: to `COCCn1c(-c2ccc(N(C)C(C)=O)cc2)nc2cc(CC(C)C)cc(C(=O)Nc3cccc(C(N)=O)c3)c21` [Ex. 211] belongs 4980 nM; to `COCCn1c(-c2ccc(N(C)C(C)=O)cc2)nc2cc(C3CCCC3)cc(C(=O)Nc3cccc(C(N)=O)c3)c21` [Ex. 212], 9030 nM; to `COCCn1c(-c2ccc(N(C)C(C)=O)cc2)nc2cc(CO)cc(C(=O)Nc3cccc(C(N)=O)c3)c21` [Ex. 213], 3470 nM.
As to `COCCn1c(-c2ccc(N(C)C(C)=O)cc2)nc2cc(CC#N)cc(C(=O)Nc3cccc(C(N)=O)c3)c21` [Ex. 214], the IC50 on human STAT6/pIL-4Rα was determined as 3980 nM.
The compound `COCCn1c(-c2ccc(N(C)C(C)=O)cc2)nc2cc(COC)cc(C(=O)Nc3cccc(C(N)=O)c3)c21` [Ex. 215] displayed an IC50 on human STAT6/pIL-4Rα of 2940 nM.
Same read-out and setting: to `COCCn1c(-c2ccc(-n3c(C)nn(C)c3=O)cc2)cc2cc(C(F)(F)F)cc(C(=O)Nc3cccc(NS(C)(=O)=O)n3)c21` [Ex. 217] belongs 590 nM; to `C/C(=C\C(=O)N[C@H](C(=O)N1CCC[C@H]1C(=O)N(C)c1ccccc1)C(C)(C)C)c1ccc(OP(=O)(O)O)cc1` [PM-301H, reference compound], 270 nM.
